{"source": "patent US20040096894A1", "about": "“Crystal structures of P- selectin, P- and E-selectin complexes, and uses thereof” (priority 2000, published 2004)", "key": {"[1]": {"test_system": "E-selectin relative P-selectin", "details": "Poppe et al., 1997; cited from earlier work"}, "[2]": {"molecular_target": "T1, P-LE (lectin/EGF domains of P-selectin) (Homo sapiens, UniProt P16109)", "T1 construct": "The lectin-EGF (LE) domains (153 amino acids) of P-selectin (P-LE) and E-selectin (E-LE); IgG1 Fc (CH2-CH3 region) (C, cleaved yes); made in house; host or cells: CHO cells", "T1 sequence (P16109 42-198)": "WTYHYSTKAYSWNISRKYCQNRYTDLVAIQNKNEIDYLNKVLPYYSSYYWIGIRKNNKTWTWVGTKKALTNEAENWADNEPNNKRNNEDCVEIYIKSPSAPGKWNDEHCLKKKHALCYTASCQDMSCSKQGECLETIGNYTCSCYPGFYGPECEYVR", "test": "BIAcore surface plasmon resonance: solution-phase P-LE binding to immobilized sPSGL and PSGL-1 19ek peptides", "details": "immobilized ligand", "text": "FIGS. 1C-1-1C-6: Binding affinity determinations of solution-phase P-LE reacted with immobilized sPSGL and purified 19ek peptides by BIAcore analysis. First row, left-to-right: sPSGL (FIGS. 1C-1), SGP-3 (FIGS. 1C-2) and SGP-2 (FIGS. 1C-3). Second row, left-to-right: SGP-1 (FIGS. 1C-4), GP-1 (FIGS. 1C-5) and SP-1 (FIGS. 1C-6). P-LE at the indicated concentrations was reacted with immobilized ligands (to determine the total binding signal) and against control […] containing no ligand (to determine non-specific binding). The equilibrium responses (Req) at each concentration of P-LE are shown. At each P-LE concentration tested, specific binding signals (squares) were determined by subtracting non-specific responses (triangles) from total binding signals (diamonds). KDs and standard deviations (shown) were determined by line-fitting of specific binding curves using BIAevaluation software (BIAcore) and are the products of three-to-ten separate experiments. KD determinations using line-fitting agreed well with values determined by linear regression analysis of Scatchard plots (not shown).\nP-LE/19ek Peptide Binding Studies. […] Glycosylated P-LE and E-LE, quantitated by experimentally determined extinction coefficients (280 nm), were injected over the19ek peptide, sPSGL and control surfaces at 40 μL/min. […]"}, "[3]": {"molecular_target": "T1, P-LE (lectin/EGF domains of P-selectin)", "test": "BIAcore: inhibition of P-LE binding to immobilized sPSGL and SGP-3 by co-injected solution-phase peptide", "details": "P-LE at 800 nM; solution-phase inhibitor at 20 μM", "procedure": "FIGS. 1B-1 and 1B-2: Representative BIAcore sensorgrams of solution-phase P-LE binding to immobilized PSGL-1 constructs. P-LE (at 800 nM concentration) was injected over sPSGL (FIGS. 1B-1) and SGP-3 (FIGS. 1B-2). […] P-LE binding to sPSGL and SGP-3 was inhibited by co-injection with solution-phase SGP-3 (dotted line) but not by a synthetic peptide containing no tyrosine sulfation or glycosylation (dashed line), both at 20 μM concentration. All curves reflect specific binding produced by subtracting non-specific binding from total binding.\nP-LE/19ek Peptide Binding Studies. Surface plasmon resonance was performed on BIAcore 2000 and 3000 instruments at 25° C. using streptavidin-coated sensor chips (BIAcore) and HBS-P buffer (BIAcore; 10 mM HEPES (pH 7.4), 150 mM NaCl, and 0.005% polysorbate 20 (v/v)) adjusted to 1 mM each CaCl2 and MgCl2. The 19ek peptides and sPSGL, a fucosyltransferase-VII modified version of the entire dimeric extracellular domain of PSGL-1 (Croce et al., 1998), were biotinylated at Lys residues with Sulfo-NHS-LC-Biotin (Pierce). Following biotinylation, sPSGL was reacted with immobilized P-selectin in order to isolate functional material (Sako et al., 1995). […] Glycosylated P-LE and E-LE, quantitated by experimentally determined extinction coefficients (280 nm), were injected over the19ek peptide, sPSGL and control surfaces at 40 μL/min. […]"}}, "note": "Numbered stars: 1 amine (or outer) side, 2 acyl side, 3 side chain; on linkers, the order of the positions; unused ones are H or OH. Square brackets hold non-standard residues; d marks the D form. Peptide text beside a SMILES is read from it. X1 = CC(=O)N[C@H]1[C@H](OC[C@H]2O[C@H](O[C@H](C)[C@H](N[*:1])C(=O)[*:2])[C@H](NC(C)=O)[C@@H](O[C@@H]3O[C@H](CO)[C@H](O)[C@H](O[C@]4(C(=O)O)C[C@H](O)[C@@H](NC(C)=O)[C@H]([C@H](O)[C@H](O)CO)O4)[C@H]3O)[C@H]2O)O[C@H](CO)[C@@H](O[C@@H]2O[C@H](CO)[C@H](O)[C@H](O[C@]3(C(=O)O)C[C@H](O)[C@@H](NC(C)=O)[C@H]([C@H](O)[C@H](O)CO)O3)[C@H]2O)[C@@H]1O[C@@H]1O[C@@H](C)[C@@H](O)[C@@H](O)[C@@H]1O; sY = N[C@@H](Cc1ccc(OS(=O)(=O)O)cc1)C(=O)O; pGlu = O=C1CC[C@@H](C(=O)O)N1", "data": [{"compound": "sialyl Lewis^X (SLe^X, NeuNAc2,3Gal1,4[Fuc1,3] GlcNAc) tetrasaccharide", "values": [{"measurement": "higher SLe^X binding affinity for E-selectin relative P-selectin", "setting": "[1]", "result": "approximately 10 fold"}]}, {"compound": "sPSGL: Fucosyltransferase-VII modified version of the entire dimeric extracellular domain of PSGL-1", "values": [{"measurement": "binding affinity of P-LE in words, compared with SGP-3 or the modified species", "setting": "[2]", "result": "essentially identical affinity"}]}, {"compound": "CSCC[C@H](NC(=O)[C@H](CCSC)NC(=O)[C@@H]1CCCN1C(=O)[C@H](CCCNC(=N)N)NC(=O)[C@@H]1CCCN1C(=O)[C@@H]1CCCN1C(=O)[C@H](CCC(=O)O)NC(=O)[C@@H](NC(=O)[C@H](CCC(=O)O)NC(=O)[C@@H]1CCCN1C(=O)[C@H](CC(C)C)NC(=O)[C@H](Cc1ccccc1)NC(=O)[C@H](CC(=O)O)NC(=O)[C@H](Cc1ccc(OS(=O)(=O)O)cc1)NC(=O)[C@H](CC(=O)O)NC(=O)[C@H](CC(C)C)NC(=O)[C@H](Cc1ccc(OS(=O)(=O)O)cc1)NC(=O)[C@H](CCC(=O)O)NC(=O)[C@H](Cc1ccc(OS(=O)(=O)O)cc1)NC(=O)[C@H](CCC(=O)O)NC(=O)[C@@H](NC(=O)[C@H](C)NC(=O)[C@@H]1CCC(=O)N1)[C@@H](C)O)[C@@H](C)O[C@H]1O[C@H](CO[C@@H]2O[C@H](CO)[C@@H](O[C@@H]3O[C@H](CO)[C@H](O)[C@H](O[C@]4(C(=O)O)C[C@H](O)[C@@H](NC(C)=O)[C@H]([C@H](O)[C@H](O)CO)O4)[C@H]3O)[C@H](O[C@@H]3O[C@@H](C)[C@@H](O)[C@@H](O)[C@@H]3O)[C@H]2NC(C)=O)[C@H](O)[C@H](O[C@@H]2O[C@H](CO)[C@H](O)[C@H](O[C@]3(C(=O)O)C[C@H](O)[C@@H](NC(C)=O)[C@H]([C@H](O)[C@H](O)CO)O3)[C@H]2O)[C@H]1NC(C)=O)C(=O)N[C@@H](CC(=O)O)C(=O)N[C@@H](CC(=O)O)C(=O)N[C@@H](CC(=O)O)C(=O)N[C@@H](CC(=O)O)C(=O)N[C@@H](CCCCN)C(=O)O", "note": "[SGP-3] ([pGlu]ATE[sY]E[sY]LD[sY]DFLPE[X1]EPPRPMMDDDDK-OH; C-terminus assumed)", "values": [{"measurement": "inhibition of P-LE binding to immobilized sPSGL and SGP-3 by co-injection", "setting": "[3]", "result": "inhibited"}]}]}
